Assay results published in patent US7964595B2, “Thiophenyl prostaglandin derivatives for treating glaucoma and ocular hypertension” (Allergan, Inc., priority 2008, dated 2011).

System: lashes and adjacent hairs of patients
Assay: Clinical observation of eyelash/hair growth in glaucoma patients treated in one eye
Assay type: in vivo
Conditions: glaucoma patients treated in one eye only
Text: In the course of treating patients having glaucoma, treatment may only be appropriate in one eye. […] The lash appearance on the lids of the treated eyes would have appeared quite attractive if it represented a bilateral phenomenon. As a result of its asymmetric nature, the long lashes on one side could be construed as disturbing from a cosmetic standpoint. A systemic examination was preformed as a result of the asymmetric phenomenon. It soon became apparent that this altered appearance was not an isolated finding. […] Definite differences could be identified to varying degrees in the lashes and adjacent hairs of all patients who were taking the drug on a unilateral basis for longer than 6 months.
The changes in the lashes were apparent on gross inspection in several patients once attention was focused on the issue. In those with light colored hair and lashes, the differences were only seen easily with the aid of the high magnification and lighting capabilities of the slit lamp biomicroscope. In the course of glaucoma follow-up examination, attention is generally immediately focused on the eye itself. As a result of the high power magnification needed only one eye is seen at a time and the eye is seen at a high enough power that the lashes are not in focus. […]

## CCNC(=O)CCC/C=C\C[C@@H]1[C@@H](/C=C/[C@@H](O)CCc2ccccc2)[C@H](O)C[C@@H]1O [bimatoprost]
  lash appearance in treated eye versus non-treated eye: longer, thicker, and fuller
